Assay results from PubChem BioAssay AID256 (DTP/NCI, 2004).
Inconclusive results and toxic doses are left out.

Tested on: CD2F1 mice, L1210 leukemia ip, survival T/C
Assay: NCI In Vivo Anticancer Drug Screen. Data for tumor model L1210 Leukemia (intraperitoneal) in CD2F1 (CDF1) mice
Conditions: higher = longer survival
Outline: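 Tumor-bearing mice (transplanted tumor) were split into treated and vehicle control groups, and the measured endpoint of each treated group was divided by that of its vehicle controls.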

[1] = endpoint: mean survival time, dose: 100.0 mg/kg/injection, schedule: Q04DX002 (ip), vehicle: saline with Tween-80

Structure (SMILES): N#Cc1ccc(OCc2nc(N)nc(N)c2-c2ccc(Cl)c(Cl)c2)cc1
- T/C (endpoint: mean survival time, dose: 50.0 mg/kg/injection, schedule: Q01DX009 (ip), vehicle: saline with Tween-80): 90 % of control
- T/C (endpoint: mean survival time, dose: 100.0 mg/kg/injection, schedule: Q01DX009 (ip), vehicle: saline with Tween-80): 102 % of control
- T/C (endpoint: mean survival time, dose: 200.0 mg/kg/injection, schedule: Q01DX009 (ip), vehicle: saline with Tween-80): 110 % of control

Structure (SMILES): C[S+]1C=Cc2ccccc2C1c1ccc(Cl)cc1 (centres undefined)
- T/C (endpoint: mean survival time, dose: 12.5 mg/kg/injection, schedule: Q04DX002 (ip), vehicle: Klucel (hydroxypropylcellulose) (HPC)): 103 % of control
- T/C (endpoint: mean survival time, dose: 25.0 mg/kg/injection, schedule: Q04DX002 (ip), vehicle: Klucel (hydroxypropylcellulose) (HPC)): 100 % of control
- T/C (endpoint: mean survival time, dose: 50.0 mg/kg/injection, schedule: Q04DX002 (ip), vehicle: Klucel (hydroxypropylcellulose) (HPC)): 105 % of control

Structure (SMILES): CCN(CC)CCNc1ccc(CO)c2sc3ccccc3c(=O)c12
- T/C (endpoint: mean survival time, dose: 4.0 mg/kg/injection, schedule: Q03HX008 (ip), vehicle: saline): 101 % of control
- T/C (endpoint: mean survival time, dose: 4.0 mg/kg/injection, schedule: Q03HX016 (ip), vehicle: saline): 104 % of control
- T/C (endpoint: mean survival time, dose: 4.0 mg/kg/injection, schedule: Q03HX024 (ip), vehicle: saline): 110 % of control
- T/C (endpoint: mean survival time, dose: 8.0 mg/kg/injection, schedule: Q03HX008 (ip), vehicle: saline): 112 % of control
- T/C (endpoint: mean survival time, dose: 8.0 mg/kg/injection, schedule: Q03HX016 (ip), vehicle: saline): 108 % of control
- T/C (endpoint: mean survival time, dose: 8.0 mg/kg/injection, schedule: Q03HX024 (ip), vehicle: saline): 117 % of control
- T/C (endpoint: mean survival time, dose: 12.5 mg/kg/injection, schedule: Q01DX009 (ip), vehicle: Klucel (hydroxypropylcellulose) (HPC)): 106 % of control
- T/C (endpoint: mean survival time, dose: 16.0 mg/kg/injection, schedule: Q03HX008 (ip), vehicle: saline): 105 % of control
- T/C (endpoint: mean survival time, dose: 16.0 mg/kg/injection, schedule: Q03HX016 (ip), vehicle: saline): 110 % of control
- T/C (endpoint: mean survival time, dose: 16.0 mg/kg/injection, schedule: Q03HX024 (ip), vehicle: saline): 151 % of control
- T/C (endpoint: mean survival time, dose: 25.0 mg/kg/injection, schedule: Q01DX009 (ip), vehicle: Klucel (hydroxypropylcellulose) (HPC)): 102 % of control
- T/C (endpoint: mean survival time, dose: 32.0 mg/kg/injection, schedule: Q01DX001 (ip), vehicle: saline): 107 % of control
- T/C (endpoint: mean survival time, dose: 32.0 mg/kg/injection, schedule: Q01DX001 (sc), vehicle: saline): 116 % of control
- T/C (endpoint: mean survival time, dose: 32.0 mg/kg/injection, schedule: Q03HX016 (ip), vehicle: saline): 117 % of control
- T/C (endpoint: mean survival time, dose: 32.0 mg/kg/injection, schedule: Q03HX024 (ip), vehicle: saline): 184 % of control
- T/C (endpoint: mean survival time, dose: 32.0 mg/kg/injection, schedule: Q04DX003 (ip), vehicle: saline): 116 % of control
- T/C (endpoint: mean survival time, dose: 32.0 mg/kg/injection, schedule: Q08DX002 (ip), vehicle: saline): 114 % of control
- T/C (endpoint: mean survival time, dose: 50.0 mg/kg/injection, schedule: Q01DX009 (ip), vehicle: Klucel (hydroxypropylcellulose) (HPC)): 120 % of control
- T/C (endpoint: mean survival time, dose: 64.0 mg/kg/injection, schedule: Q01DX001 (ip), vehicle: saline): 108 % of control
- T/C (endpoint: mean survival time, dose: 64.0 mg/kg/injection, schedule: Q01DX001 (sc), vehicle: saline): 111 % of control
- T/C (endpoint: mean survival time, dose: 64.0 mg/kg/injection, schedule: Q01DX009 (ip), vehicle: saline): 174 % of control
- T/C (endpoint: mean survival time, dose: 64.0 mg/kg/injection, schedule: Q01DX009 (oral), vehicle: saline): 121 % of control
- T/C (endpoint: mean survival time, dose: 64.0 mg/kg/injection, schedule: Q01DX009 (sc), vehicle: saline): 156 % of control
- T/C (endpoint: mean survival time, dose: 64.0 mg/kg/injection, schedule: Q03HX008 (ip), vehicle: saline): 150 % of control
- T/C (endpoint: mean survival time, dose: 64.0 mg/kg/injection, schedule: Q03HX016 (ip), vehicle: saline): 151 % of control
- T/C (endpoint: mean survival time, dose: 64.0 mg/kg/injection, schedule: Q03HX024 (ip), vehicle: saline): 94 % of control
- T/C (endpoint: mean survival time, dose: 64.0 mg/kg/injection, schedule: Q08DX002 (ip), vehicle: saline): 113 % of control
- T/C (endpoint: mean survival time, dose: 120.0 mg/kg/injection, schedule: Q01DX001 (ip), vehicle: acetone): 113 % of control
- T/C (endpoint: mean survival time, dose: 120.0 mg/kg/injection, schedule: Q01DX009 (ip), vehicle: acetone): 118 % of control
- T/C (endpoint: mean survival time, dose: 128.0 mg/kg/injection, schedule: Q01DX001 (ip), vehicle: saline): 110 % of control
- T/C (endpoint: mean survival time, dose: 128.0 mg/kg/injection, schedule: Q01DX001 (sc), vehicle: saline): 115 % of control
- T/C (endpoint: mean survival time, dose: 128.0 mg/kg/injection, schedule: Q01DX009 (ip), vehicle: saline): 101 % of control
- T/C (endpoint: mean survival time, dose: 128.0 mg/kg/injection, schedule: Q01DX009 (sc), vehicle: saline): 111 % of control
- T/C (endpoint: mean survival time, dose: 128.0 mg/kg/injection, schedule: Q08DX002 (ip), vehicle: saline): 111 % of control
- T/C (endpoint: mean survival time, dose: 180.0 mg/kg/injection, schedule: Q01DX001 (ip), vehicle: acetone): 106 % of control
- T/C (endpoint: mean survival time, dose: 256.0 mg/kg/injection, schedule: Q01DX001 (ip), vehicle: saline): 122 % of control
- T/C (endpoint: mean survival time, dose: 256.0 mg/kg/injection, schedule: Q01DX001 (oral), vehicle: saline): 110 % of control
- T/C (endpoint: mean survival time, dose: 256.0 mg/kg/injection, schedule: Q01DX001 (sc), vehicle: saline): 115 % of control
- T/C (endpoint: mean survival time, dose: 256.0 mg/kg/injection, schedule: Q01DX009 (oral), vehicle: saline): 124 % of control
- T/C (endpoint: mean survival time, dose: 400.0 mg/kg/injection, schedule: Q01DX001 (ip), vehicle: acetone): 120 % of control
- T/C (endpoint: mean survival time, dose: 512.0 mg/kg/injection, schedule: Q01DX001 (oral), vehicle: saline): 117 % of control
- T/C (endpoint: median survival time, dose: 10.0 mg/kg/injection, schedule: Q01DX009 (ip), vehicle: water): 102 % of control
- T/C (endpoint: median survival time, dose: 40.0 mg/kg/injection, schedule: Q01DX009 (ip), vehicle: water): 150 % of control
- T/C (endpoint: median survival time, dose: 160.0 mg/kg/injection, schedule: Q01DX009 (ip), vehicle: water): 103 % of control

Structure (SMILES): CCCCOC(=O)COc1ccc(F)cc1
- T/C [1]: 94 % of control
- T/C (endpoint: mean survival time, dose: 200.0 mg/kg/injection, schedule: Q04DX002 (ip), vehicle: saline with Tween-80): 94 % of control
- T/C (endpoint: mean survival time, dose: 400.0 mg/kg/injection, schedule: Q04DX002 (ip), vehicle: saline with Tween-80): 94 % of control

Structure (SMILES): S=P(N1CCOCC1)(N1CC1)N1CC1
- T/C (endpoint: mean survival time, dose: 10.0 mg/kg/injection, schedule: Q01DX007 (ip), vehicle: saline): 116 % of control
- T/C (endpoint: mean survival time, dose: 10.0 mg/kg/injection, schedule: Q03DX003 (ip), vehicle: saline): 118 % of control
- T/C (endpoint: mean survival time, dose: 10.0 mg/kg/injection, schedule: Q04DX003 (ip), vehicle: saline): 114 % of control
- T/C (endpoint: mean survival time, dose: 12.5 mg/kg/injection, schedule: Q01DX Z (ip), vehicle: carboxymethylcellulose (CMC)): 118 % of control
- T/C (endpoint: mean survival time, dose: 20.0 mg/kg/injection, schedule: Q01DX007 (ip), vehicle: saline): 172 % of control
- T/C (endpoint: mean survival time, dose: 20.0 mg/kg/injection, schedule: Q01DX009 (ip), vehicle: saline): 171 % of control
- T/C (endpoint: mean survival time, dose: 25.0 mg/kg/injection, schedule: Q01DX Z (ip), vehicle: carboxymethylcellulose (CMC)): 100 % of control
- T/C (endpoint: mean survival time, dose: 40.0 mg/kg/injection, schedule: Q01DX007 (ip), vehicle: saline): 86 % of control
- T/C (endpoint: mean survival time, dose: 40.0 mg/kg/injection, schedule: Q01DX009 (ip), vehicle: saline): 100 % of control
- T/C (endpoint: mean survival time, dose: 40.0 mg/kg/injection, schedule: Q03DX003 (ip), vehicle: saline): 223 % of control
- T/C (endpoint: mean survival time, dose: 40.0 mg/kg/injection, schedule: Q04DX003 (ip), vehicle: saline): 218 % of control

Structure (SMILES): Cn1cnc(C(=N)[Se])c1N
- T/C (endpoint: mean survival time, dose: 0.78 mg/kg/injection, schedule: Q01DX005 (ip), vehicle: water): 90 % of control
- T/C (endpoint: mean survival time, dose: 1.56 mg/kg/injection, schedule: Q01DX005 (ip), vehicle: water): 102 % of control
- T/C (endpoint: mean survival time, dose: 3.13 mg/kg/injection, schedule: Q01DX005 (ip), vehicle: water): 100 % of control
- T/C (endpoint: mean survival time, dose: 6.25 mg/kg/injection, schedule: Q01DX005 (ip), vehicle: water): 90 % of control
- T/C (endpoint: mean survival time, dose: 12.5 mg/kg/injection, schedule: Q01DX005 (ip), vehicle: water): 100 % of control

Structure (SMILES): CC1(C)N=C(N)N=C(N)N1c1ccc(Cl)c(Cl)c1
- T/C (endpoint: mean survival time, dose: 25.0 mg/kg/injection, schedule: Q04DX002 (ip), vehicle: saline with Tween-80): 102 % of control
- T/C (endpoint: mean survival time, dose: 50.0 mg/kg/injection, schedule: Q04DX002 (ip), vehicle: saline with Tween-80): 98 % of control
- T/C (endpoint: mean survival time, dose: 100.0 mg/kg/injection, schedule: Q01DX001 (ip), vehicle: Klucel (hydroxypropylcellulose) (HPC)): 96 % of control
- T/C [1]: 90 % of control

Structure (SMILES): O=C(Nc1ccccn1)C(O)C(O)C(O)C(O)CO (centres undefined)
- T/C (endpoint: mean survival time, dose: 12.5 mg/kg/injection, schedule: Q04DX003 (ip), vehicle: saline with Tween-80): 96 % of control
- T/C (endpoint: mean survival time, dose: 25.0 mg/kg/injection, schedule: Q04DX003 (ip), vehicle: saline with Tween-80): 101 % of control
- T/C (endpoint: mean survival time, dose: 50.0 mg/kg/injection, schedule: Q04DX003 (ip), vehicle: saline with Tween-80): 89 % of control

Structure (SMILES): CSc1ccc(NC=O)cc1
- T/C (endpoint: mean survival time, dose: 75.0 mg/kg/injection, schedule: Q01DX001 (ip), vehicle: saline): 98 % of control
- T/C (endpoint: mean survival time, dose: 150.0 mg/kg/injection, schedule: Q01DX001 (ip), vehicle: saline): 100 % of control
- T/C (endpoint: mean survival time, dose: 300.0 mg/kg/injection, schedule: Q01DX001 (ip), vehicle: saline): 100 % of control
